Drawing on patent US5397794A, “Use of thiazoloisoindolinone derivatives as antiviral medicaments” (Boehringer Mannheim GmbH, priority 1990, dated 1995), this text covers IC50 and therapeutic range for ten molecules.

What is called IC50 is the point on the concentration scale where inhibition reaches its midpoint.

One data set deals with T1, HIV-RT (purified RT from HIV-1, expressed in E. coli) (Human immunodeficiency virus type 1 group M subtype B, UniProt P04585).
T1 construct: purified RT from HIV-1; made in house; host or cells: E. coli
Put plainly: Inhibition of HIV-1 reverse transcriptase (RT), [3H]-thymidine-5'-triphosphate incorporation. The format is biochemical. Particulars: purified recombinant HIV-1 RT; HIV-LTR in vitro transcript template, 18 mer primer. The text has this:
Inhibition of reverse transcriptase (RT) by 9b-phenyl-2,3-dihydrothiazolo[2,3-a]isoindol-5(9bH)-one.
The screening test system contains the purified RT from HIV-1, which was expressed by gene-technological methods in E. coli, as well as the components of the initiation complex, such as the in vitro transcripts of the HIV-LTR's with the neighbouring primer binding site as template and an 18 mer oligo-nucleotide as primer complementary to the primer binding site. The [^-3 H]-thymidine-5'-triphosphate incorporation was measured by counting in a β-counter.
On to `Cc1cn([C@H]2C[C@H](N=[N+]=[N-])[C@@H](CO[P@](=O)(O)O[P@](=O)(O)OP(=O)(O)O)O2)c(=O)[nH]c1=O` [AZT-TP, 3'-azido-3'-desoxythymidine-5'-triphosphate, reference compound], for which the IC50 was found to be 6 µM.

Regarding `O=C1c2ccccc2C2(c3ccc(Cl)cc3)SCCN12` (stereo not shown) [Example 3.2], the IC50 stood at 4 µM.

For the molecule `O=C1c2ccccc2C2(c3ccc(Cl)c(Cl)c3)SCCN12` (stereo not shown) [Example 3.4], the IC50 turned out to be 4 µM.

Consider `Cc1cccc(C23SCCN2C(=O)c2ccccc23)c1C` (stereo not shown) [Example 3.8], for which the IC50 turned out to be 0.8 µM.

Take `COc1cccc(C23SCCN2C(=O)c2ccccc23)c1` (stereo not shown) [Example 3.12]: the IC50 worked out at 1.1 µM.

In the case of `O=C1c2ccccc2C2(c3cccc(C(F)(F)F)c3)SCCN12` (stereo not shown) [Example 3.15], the IC50 was found to be 1 µM.

Take `Cc1ccc(C)c(C23SCCN2C(=O)c2ccccc23)c1` (stereo not shown) [Example 3.18]: the IC50 is 0.95 µM.

With `O=C1c2ccccc2C2(c3ccccc3)SCCN12` (stereo not shown) [Example 3.30, 9b-phenyl-2,3-dihydrothiazolo[2,3-a]isoindol-5(9bH)-one], the IC50 was determined as 0.7 µM.

On to `O=C1c2ccccc2C2(c3ccccc3)N1CCS2(=O)=O` (stereo not shown) [Example 4, 9b-Phenyl-2,3-dihydrothiazolo[2,3-a]isoindol-5(9bH)-one 1,1-dioxide], for which the IC50 stood at 1.4 µM.

Tested on in a further data set: not given
Test: not given
The settings on record: Hirsch, J. Infec. Dis. 157, 427-431 (1988); cited from earlier work.
On to `Cc1cn([C@H]2C[C@H](N=[N+]=[N-])[C@@H](CO)O2)c(=O)[nH]c1=O` [AZT, 3'-azido-3'-desoxythymidine], for which the therapeutic range entry is “very narrow therapeutic range”.
